Drawing on US20240368214A1, “POSITIVE NMDA-MODULATING COMPOUNDS AND METHODS OF USE THEREOF” (SAGE THERAPEUTICS, INC., priority 2021, published 2024), this text covers Emax and EC50 for 19 compounds.

This test has as its target T1, recombinant human GluN1/GluN2A receptor (Homo sapiens, UniProt Q05586+Q12879).
T1 construct: expressed in transfected cells; host or cells: HEK293, tetracycline-inducible expression
Description: Whole-cell patch clamp of mammalian cells (Syncropatch 384i), NMDA modulation. The format is cell-based. The settings on record: HEK293 cells, human GluN1/GluN2A, glutamate 1 μM / glycine 100 μM, -80 mV, peak amplitude increase; for EC50: read-out: EC50. Summed up:
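Modulation read as fold rise in peak current, (Icomp/Icontrol)−1, from 8 concentrations with ≥2 wells each, four-parameter fit. Compound pre-incubated 120 s then co-applied with 1 μM glutamate plus 100 μM glycine; tetracycline-inducible HEK293 GluN1/GluN2A cells clamped at −80 mV.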

Where two headings read alike, the source gives them in different places.

T1 sequence (Q12879 23-1464, other chains not shown): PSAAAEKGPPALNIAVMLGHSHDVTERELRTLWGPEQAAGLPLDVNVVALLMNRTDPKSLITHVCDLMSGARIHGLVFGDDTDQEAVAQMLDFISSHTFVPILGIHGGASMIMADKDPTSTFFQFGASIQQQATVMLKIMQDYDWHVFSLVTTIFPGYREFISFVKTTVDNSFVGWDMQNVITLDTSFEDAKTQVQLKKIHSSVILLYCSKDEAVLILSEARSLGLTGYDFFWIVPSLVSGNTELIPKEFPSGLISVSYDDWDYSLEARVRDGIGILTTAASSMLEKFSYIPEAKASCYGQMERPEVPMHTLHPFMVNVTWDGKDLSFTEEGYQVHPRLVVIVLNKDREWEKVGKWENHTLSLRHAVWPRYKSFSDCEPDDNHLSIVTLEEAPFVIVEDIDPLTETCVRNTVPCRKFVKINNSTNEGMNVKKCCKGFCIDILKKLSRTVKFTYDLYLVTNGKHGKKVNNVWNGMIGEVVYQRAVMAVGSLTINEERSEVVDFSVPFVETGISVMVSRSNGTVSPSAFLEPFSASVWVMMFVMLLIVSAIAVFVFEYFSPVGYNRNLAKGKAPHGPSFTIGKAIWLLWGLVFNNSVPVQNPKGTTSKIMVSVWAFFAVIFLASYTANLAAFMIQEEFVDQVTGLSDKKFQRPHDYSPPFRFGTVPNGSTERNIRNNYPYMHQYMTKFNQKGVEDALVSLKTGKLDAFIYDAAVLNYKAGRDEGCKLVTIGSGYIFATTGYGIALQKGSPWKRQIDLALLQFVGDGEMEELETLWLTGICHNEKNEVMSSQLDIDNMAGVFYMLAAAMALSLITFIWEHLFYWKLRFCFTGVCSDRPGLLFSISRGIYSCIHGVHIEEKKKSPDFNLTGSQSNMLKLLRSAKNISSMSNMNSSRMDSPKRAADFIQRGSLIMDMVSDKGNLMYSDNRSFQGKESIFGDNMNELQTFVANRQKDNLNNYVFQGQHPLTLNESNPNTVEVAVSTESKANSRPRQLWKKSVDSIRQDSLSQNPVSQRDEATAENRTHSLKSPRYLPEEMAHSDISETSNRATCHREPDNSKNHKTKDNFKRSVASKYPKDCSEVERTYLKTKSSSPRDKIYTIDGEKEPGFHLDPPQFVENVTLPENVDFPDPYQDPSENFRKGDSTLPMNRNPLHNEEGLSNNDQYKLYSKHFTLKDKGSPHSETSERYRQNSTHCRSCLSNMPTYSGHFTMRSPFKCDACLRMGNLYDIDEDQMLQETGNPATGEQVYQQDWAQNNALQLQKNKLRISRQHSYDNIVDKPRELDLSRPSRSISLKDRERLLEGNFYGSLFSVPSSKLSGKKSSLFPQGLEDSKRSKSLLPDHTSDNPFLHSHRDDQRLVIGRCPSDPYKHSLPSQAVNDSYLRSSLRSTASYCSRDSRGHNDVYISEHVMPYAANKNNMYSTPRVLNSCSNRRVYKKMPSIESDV

For `CC[C@]1(O)CC[C@]2(C)C3=CC[C@]4(C)[C@@H]([C@H](C)CCCC(C)(C)O)CC[C@H]4[C@@H]3CC[C@H]2C1` [Compound E-1, (3S,5S,8S,10S,13R,14S,17R)-3-ethyl-17-((R)-6-hydroxy-6-methylheptan-2-yl)-10,13-dimethyl-2,3,4,5,6,7,8,10,12,13,14,15,16,17-tetradecahydro-1H-cyclopenta[a]phenanthren-3-ol], for the setting “Table E-2”, the Emax was under 100% and the EC50 is 1 to 100 nM.

For the compound `CC[C@]1(O)CC[C@]2(C)C3=CC[C@]4(C)[C@@H]([C@H](C)CC[C@@](C)(O)C(F)(F)F)CC[C@H]4[C@@H]3CC[C@H]2C1` [Compound E-2, (3S,5S,8S,10S,13R,14S,17R)-3-ethyl-10,13-dimethyl-17-((2R,5R)-6,6,6-trifluoro-5-hydroxy-5-methylhexan-2-yl)-2,3,4,5,6,7,8,10,12,13,14,15,16,17-tetradecahydro-1H-cyclopenta[a]phenanthren-3-ol], under “Table E-2”, the Emax is over 200% and the EC50 was 100 to 500 nM.

For `CC[C@]1(O)CC[C@]2(C)C3=CC[C@]4(C)[C@@H]([C@H](C)CC[C@](C)(O)C(F)(F)F)CC[C@H]4[C@@H]3CC[C@H]2C1` [Compound E-3, (3S,5S,8S,10S,13R,14S,17R)-3-ethyl-10,13-dimethyl-17-((2R,5S)-6,6,6-trifluoro-5-hydroxy-5-methylhexan-2-yl)-2,3,4,5,6,7,8,10,12,13,14,15,16,17-tetradecahydro-1H-cyclopenta[a]phenanthren-3-ol], where the note is “Table E-2”, the maximal response (Emax) was over 200% and the EC50 lay within 1 to 100 nM.

`CC[C@]1(O)CC[C@]2(C)C3=CC[C@]4(C)[C@@H]([C@H](C)CC[C@@H](O)C(C)C)CC[C@H]4[C@@H]3CC[C@H]2C1` [Compound E-4, (3S,5S,8S,10S,13R,14S,17R)-3-ethyl-17-((2R,5R)-5-hydroxy-6-methylheptan-2-yl)-10,13-dimethyl-2,3,4,5,6,7,8,10,12,13,14,15,16,17-tetradecahydro-1H-cyclopenta[a]phenanthren-3-ol]: under “Table E-2”, the Emax was over 200% and the EC50 was 1 to 100 nM.

With `CC[C@]1(O)CC[C@]2(C)C3=CC[C@]4(C)[C@@H]([C@H](C)CCC(C)(C)O)CC[C@H]4[C@@H]3CC[C@H]2C1` [Compound E-5, (3S,5S,8S,10S,13R,14S,17R)-3-ethyl-17-((R)-5-hydroxy-5-methylhexan-2-yl)-10,13-dimethyl-2,3,4,5,6,7,8,10,12,13,14,15,16,17-tetradecahydro-1H-cyclopenta[a]phenanthren-3-ol], where the note is “Table E-2”, the Emax lay in the range of 100 to 200% and the EC50 is 1 to 100 nM.

For `CC[C@]1(O)CC[C@]2(C)C3=CC[C@]4(C)[C@@H]([C@H](C)CCC5(O)CCCC5)CC[C@H]4[C@@H]3CC[C@H]2C1` [Compound E-6, (3S,5S,8S,10S,13R,14S,17R)-3-ethyl-17-((R)-4-(1-hydroxycyclopentyl)butan-2-yl)-10,13-dimethyl-2,3,4,5,6,7,8,10,12,13,14,15,16,17-tetradecahydro-1H-cyclopenta[a]phenanthren-3-ol], for the setting “Table E-2”, the Emax was over 200% and the concentration giving a half-maximal response (EC50) was 1 to 100 nM.

As to `CC[C@]1(O)CC[C@]2(C)C3=CC[C@]4(C)[C@@H]([C@H](C)CCC5(O)CC5)CC[C@H]4[C@@H]3CC[C@H]2C1` [Compound E-7, (3S,5S,8S,10S,13R,14S,17R)-3-ethyl-17-((R)-4-(1-hydroxycyclopropyl)butan-2-yl)-10,13-dimethyl-2,3,4,5,6,7,8,10,12,13,14,15,16,17-tetradecahydro-1H-cyclopenta[a]phenanthren-3-ol], where the note is “Table E-2”, the maximal effect (Emax) was over 200% and the EC50 lay within 100 to 500 nM.

Consider `CC[C@]1(O)CC[C@]2(C)C3=CC[C@]4(C)[C@@H]([C@H](C)CC[C@@]5(O)CCOC5)CC[C@H]4[C@@H]3CC[C@H]2C1` [Compound E-8, (R)-3-((R)-3-((3S,5S,8S,10S,13R,14S,17R)-3-ethyl-3-hydroxy-10,13-dimethyl-2,3,4,5,6,7,8,10,12,13,14,15,16,17-tetradecahydro-1H-cyclopenta[a]phenanthren-17-yl)butyl)tetrahydrofuran-3-ol], for which, where the note is “Table E-2”, the Emax was over 200% and the EC50 was in the range of 1 to 100 nM.

Turning to `CC[C@]1(O)CC[C@]2(C)C3=CC[C@]4(C)[C@@H]([C@H](C)CC[C@]5(O)CCOC5)CC[C@H]4[C@@H]3CC[C@H]2C1` [Compound E-9, (S)-3-((R)-3-((3S,5S,8S,10S,13R,14S,17R)-3-ethyl-3-hydroxy-10,13-dimethyl-2,3,4,5,6,7,8,10,12,13,14,15,16,17-tetradecahydro-1H-cyclopenta[a]phenanthren-17-yl)butyl)tetrahydrofuran-3-ol], where the note is “Table E-2”, the maximal response (Emax) is over 200% and the EC50 fell in the range of 1 to 100 nM.

`C[C@H](CCCO)[C@H]1CC[C@H]2[C@@H]3CC[C@H]4C[C@@](C)(O)CC[C@]4(C)C3=CC[C@]12C` [Compound E-10, (3S,5S,8S,10S,13R,14S,17R)-17-((R)-5-hydroxypentan-2-yl)-3,10,13-trimethyl-2,3,4,5,6,7,8,10,12,13,14,15,16,17-tetradecahydro-1H-cyclopenta[a]phenanthren-3-ol]: where the note is “Table E-2”, the Emax was under 100% and the EC50 was 1 to 100 nM.

Consider `CC(C)[C@H](O)CC[C@@H](C)[C@H]1CC[C@H]2[C@@H]3CC[C@H]4C[C@@](C)(O)CC[C@]4(C)C3=CC[C@]12C` [Compound E-11, (3S,5S,8S,10S,13R,14S,17R)-17-((2R,5R)-5-hydroxy-6-methylheptan-2-yl)-3,10,13-trimethyl-2,3,4,5,6,7,8,10,12,13,14,15,16,17-tetradecahydro-1H-cyclopenta[a]phenanthren-3-ol], for which, under “Table E-2”, the Emax lay within 100 to 200% and the EC50 was 1 to 100 nM.

As for `CC(C)[C@@H](O)CC[C@@H](C)[C@H]1CC[C@H]2[C@@H]3CC[C@H]4C[C@@](C)(O)CC[C@]4(C)C3=CC[C@]12C` [Compound E-12, (3S,5S,8S,10S,13R,14S,17R)-17-((2R,5S)-5-hydroxy-6-methylheptan-2-yl)-3,10,13-trimethyl-2,3,4,5,6,7,8,10,12,13,14,15,16,17-tetradecahydro-1H-cyclopenta[a]phenanthren-3-ol], for the setting “Table E-2”, the Emax lay in the range of 100 to 200% and the EC50 was in the range of 1 to 100 nM.

`C[C@H](CC[C@](C)(O)C(F)(F)F)[C@H]1CC[C@H]2[C@@H]3CC[C@H]4C[C@@](C)(O)CC[C@]4(C)C3=CC[C@]12C` [Compound E-13, (3S,5S,8S,10S,13R,14S,17R)-3,10,13-trimethyl-17-((2R,5S)-6,6,6-trifluoro-5-hydroxy-5-methylhexan-2-yl)-2,3,4,5,6,7,8,10,12,13,14,15,16,17-tetradecahydro-1H-cyclopenta[a]phenanthren-3-ol]: the EC50 (Table E-2) is 1 to 100 nM.

Take `C[C@H](CC[C@@](C)(O)C(F)(F)F)[C@H]1CC[C@H]2[C@@H]3CC[C@H]4C[C@@](C)(O)CC[C@]4(C)C3=CC[C@]12C` [Compound E-14, (3S,5S,8S,10S,13R,14S,17R)-3,10,13-trimethyl-17-((2R,5R)-6,6,6-trifluoro-5-hydroxy-5-methylhexan-2-yl)-2,3,4,5,6,7,8,10,12,13,14,15,16,17-tetradecahydro-1H-cyclopenta[a]phenanthren-3-ol]: the EC50 (Table E-2) was in the range of 100 to 500 nM.

As for `C[C@H](CCC1(O)CC1)[C@H]1CC[C@H]2[C@@H]3CC[C@H]4C[C@@](C)(O)CC[C@]4(C)C3=CC[C@]12C` [Compound E-15, (3S,5S,8S,10S,13R,14S,17R)-17-((R)-4-(1-hydroxycyclopropyl)butan-2-yl)-3,10,13-trimethyl-2,3,4,5,6,7,8,10,12,13,14,15,16,17-tetradecahydro-1H-cyclopenta[a]phenanthren-3-ol], the EC50 (Table E-2) lay in the range of 1 to 100 nM.

`CCC(O)(CC)CC[C@@H](C)[C@H]1CC[C@H]2[C@@H]3CC[C@H]4C[C@@](C)(O)CC[C@]4(C)C3=CC[C@]12C` [Compound E-16, (3S,5S,8S,10S,13R,14S,17R)-17-((R)-5-ethyl-5-hydroxyheptan-2-yl)-3,10,13-trimethyl-2,3,4,5,6,7,8,10,12,13,14,15,16,17-tetradecahydro-1H-cyclopenta[a]phenanthren-3-ol]: under “Table E-2”, the EC50 was 500 to 1000 nM.

Take `CC[C@]12CC[C@H]3[C@@H](CC=C4C[C@@](C)(O)CC[C@@]43C)[C@@H]1CC[C@@H]2[C@H](C)CC[C@H](O)C(C)C` [Compound F-3, (3S,8S,9S,10R,13R,14S,17R)-13-ethyl-17-((2R,5S)-5-hydroxy-6-methylheptan-2-yl)-3,10-dimethyl-2,3,4,7,8,9,10,11,12,13,14,15,16,17-tetradecahydro-1H-cyclopenta[a]phenanthren-3-ol]: the EC50 (Table F-2) fell in the range of 100 to 500 nM.

Consider `CC[C@]12CC[C@H]3[C@@H](CC=C4C[C@@](C)(O)CC[C@@]43C)[C@@H]1CC[C@@H]2[C@H](C)CC[C@@H](O)C(C)C` [Compound F-4, (3S,8S,9S,10R,13R,14S,17R)-13-ethyl-17-((2R,5R)-5-hydroxy-6-methylheptan-2-yl)-3,10-dimethyl-2,3,4,7,8,9,10,11,12,13,14,15,16,17-tetradecahydro-1H-cyclopenta[a]phenanthren-3-ol], for which, for the setting “Table F-2”, the EC50 fell in the range of 100 to 500 nM.

Consider `CC[C@]1(O)CC[C@@]2(C)C(=CC[C@H]3[C@@H]4CC[C@H]([C@H](C)CC[C@H](O)C(C)C)[C@@]4(CC)CC[C@@H]32)C1` [Compound F-5, (3S,8S,9S,10R,13R,14S,17R)-3,13-diethyl-17-((2R,5S)-5-hydroxy-6-methylheptan-2-yl)-10-methyl-2,3,4,7,8,9,10,11,12,13,14,15,16,17-tetradecahydro-1H-cyclopenta[a]phenanthren-3-ol], for which the EC50 (Table F-2) fell in the range of 100 to 500 nM.

For orientation: Emax means the greatest response seen or fitted, relative to the assay's reference. For orientation: EC50 means the concentration that produces a half-maximal response.
